These results are taken from US7884117B2, “Carbonylamino pyrrolopyrazoles, potent kinase inhibitors” (Pfizer Inc., priority 2005, dated 2011).

For test [1], the target named is T1, PAK4 Kinase domain (PAK4 KD) (Homo sapiens, UniProt O96013).
T1 construct: Cloning, expression, and purification of recombinant PAK4 Kinase domain (PAK4 KD); His tag (pET28a(+)/pET24a(+), Ni-NTA purification) (N, cleaved yes); GST (pGST4.5, glutathione column) (N, cleaved yes); made in house; host or cells: E. coli BL21(DE3)
T1 sequence (O96013 321-572 limits assumed): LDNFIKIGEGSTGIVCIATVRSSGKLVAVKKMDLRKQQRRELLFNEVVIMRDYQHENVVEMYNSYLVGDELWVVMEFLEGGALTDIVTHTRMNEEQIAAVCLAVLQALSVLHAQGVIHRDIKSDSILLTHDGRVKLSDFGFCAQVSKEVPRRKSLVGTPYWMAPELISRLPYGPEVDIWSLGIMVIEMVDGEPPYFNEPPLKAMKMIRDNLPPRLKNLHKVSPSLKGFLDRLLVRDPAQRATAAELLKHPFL
Nature of the test: PAK4 kinase domain enzymatic assay (PK/LDH-coupled, Ki). Type of test: biochemical. Conditions: PAK4 Kinase Domain.

Test [2] addresses T2, PAK4 kinase activity in whole cells (TR-293-KDG, modified HEK 293) (Homo sapiens, UniProt O96013).
T2 construct: engineered to overexpress both GEF-H1b and the kinase domain (KD) of PAK4; expressed in transfected cells; host or cells: TR-293-KDG (modified HEK 293, Trex system, Invitrogen)
Nature of the test: PAK4 cellular assay: sandwich ELISA of PAK4-dependent phosphorylation of GEF-H1b in TR-293-KDG cells. Conditions: 3-hour exposure. Type of test: cell-based. A general note: ELISA stands for enzyme-linked immunosorbent assay.
Experimental: A sandwich ELISA method was used to measure the PAK4 kinase activity in whole cells. The level of PAK4-dependent phosphorylation of GEF-H1b can be determined by monitoring the binding of a phosphospecific antibody to GEF-H1b. […] The KD of PAK4 is inducible in this cell line by tetracycline (Trex system, Invitrogen). […] To establish a phosphorylation event on GEF-HL, cells are induced with doxycycline to express the PAK4 KD. […] Candidate substance effect is measured as the ability to block this phosphorylation event.
ELISA plate was prepared by pre-coating the plates with a capture antibody (α-HA-tag mouse monoclonal antibody), blocked with BSA, and washed in 0.1% tween 20 in tris-buffered saline (TBST). […] Cells were then lysed with a modified RIPA buffer supplemented with protease inhibitors. […] Between all subsequent steps plates were washed 4 times with TBST. Detection antibody (recognizing the phospho-specific eptitope on GEF-H1b) was added for 1 hour, followed by addition of an enzyme linked goat α-rabbit secondary antibody for 45 minutes. […] EC50 values were calculated by sigmoid curve fitting using a four-parameter analysis.

The structures appear in SMILES notation.

T2 sequence (O96013 321-572 limits assumed): as above

With `CC1(C)c2[nH]nc(NC(=O)c3ccc(F)cc3)c2CN1C(=O)OC(CN1CCCC1)c1ccccc1` (stereo not drawn) [Example 43, 1-phenyl-2-pyrrolidin-1-ylethyl 3-[(4-fluorobenzoyl)amino]-6,6-dimethyl-4,6-dihydropyrrolo[3,4-c]pyrazole-5(1H)-carboxylate], in test [1], the affinity, expressed as Ki, was 58.1 nM. The same compound returned an EC50 in test [2] of 439 nM.
On to `C[C@@H]([C@@H](OC(=O)N1Cc2c(NC(=O)c3ccc(F)cc3)n[nH]c2C1(C)C)c1ccccc1)N(C)C` [Example 45, (1S,2S)-2-(dimethylamino)-1-phenylpropyl 3-[(4-fluorobenzoyl)amino]-6,6-dimethyl-4,6-dihydropyrrolo[3,4-c]pyrazole-5(1H)-carboxylate], for which the Ki in test [1] amounted to 318 nM. Also, in test [2], the EC50 amounted to 21.1 nM.
For `CN(C)C[C@@H](NC(=O)N1Cc2c(NC(=O)c3ccccc3)n[nH]c2C1(C)C)c1ccccc1` [Example 46, 3-(benzoylamino)-N-[(1S)-2-(dimethylamino)-1-phenylethyl]-6,6-dimethyl-4,6-dihydro pyrrolo[3,4-c]pyrazole-5(1H)-carboxamide], in that order: 33.6 nM and 32.1 nM.
In test [1], `CN(C)C[C@@H](NC(=O)N1Cc2c(NC(=O)c3ccc(F)cc3)n[nH]c2C1(C)C)c1ccccc1` [Example 47, N-[(1S)-2-(dimethylamino)-1-phenylethyl]-3-[(4-fluorobenzoyl)amino]-6,6-dimethyl-4,6-dihydropyrrolo[3,4-c]pyrazole-5(1H)-carboxamide] gave a Ki of 54.2 nM. In test [2], this compound came in with an EC50 of 34.7 nM.
The corresponding values for `CN(C)C[C@@H](NC(=O)N1Cc2c(NC(=O)c3ccccc3F)n[nH]c2C1(C)C)c1ccccc1` [Example 48, N-[(1S)-2-(dimethylamino)-1-phenylethyl]-3-[(2-fluorobenzoyl)amino]-6,6-dimethyl-4,6-dihydropyrrolo[3,4-c]pyrazole-5(1H)-carboxamide] are 98.3 nM and 36.4 nM.
For `CN(C)C[C@@H](NC(=O)N1Cc2c(NC(=O)c3ccc(C(F)(F)F)cc3)n[nH]c2C1(C)C)c1ccccc1` [Example 50, N-[(1S)-2-(dimethylamino)-1-phenylethyl]-6,6-dimethyl-3-{[4-(trifluoromethyl)benzoyl]amino}-4,6-dihydropyrrolo[3,4-c]pyrazole-5(1H)-carboxamide], in that order: 33.8 nM and 335 nM.
The corresponding values for `CN(C)C[C@@H](NC(=O)N1Cc2c(NC(=O)c3ccccn3)n[nH]c2C1(C)C)c1ccccc1` [Example 51, N-[(1S)-2-(dimethylamino)-1-phenylethyl]-6,6-dimethyl-3-[(pyridin-2-ylcarbonyl)amino]-4,6-dihydropyrrolo[3,4-c]pyrazole-5(1H)-carboxamide] are 118 nM and 20.3 nM.
`CC(=O)Nc1n[nH]c2c1CN(C(=O)N[C@H](CN(C)C)c1ccccc1)C2(C)C` [Example 52, 3-(acetylamino)-N-[(1S)-2-(dimethylamino)-1-phenylethyl]-6,6-dimethyl-4,6-dihydropyrrolo[3,4-c]pyrazole-5(1H)-carboxamide] showed a Ki in test [1] of 354 nM. This compound came in with a concentration for a half-maximal effect (EC50) in test [2] of 242 nM.
Compound `CN(C)C[C@@H](NC(=O)N1Cc2c(NC(=O)C3CCC3)n[nH]c2C1(C)C)c1ccccc1` [Example 53, 3-[(cyclobutylcarbonyl)amino]-N-[(1S)-2-(dimethylamino)-1-phenylethyl]-6,6-dimethyl-4,6-dihydropyrrolo[3,4-c]pyrazole-5(1H)-carboxamide] returned a Ki in test [1] of 210 nM. The midpoint of the response in test [2], the EC50, lay at 28 nM.
For `CN(C)C[C@@H](NC(=O)N1Cc2c(NC(=O)Cc3ccc(F)cc3)n[nH]c2C1(C)C)c1ccccc1` [Example 54, N-[(1S)-2-(dimethylamino)-1-phenylethyl]-3-{[(4-fluorophenyl)acetyl]amino}-6,6-dimethyl-4,6-dihydropyrrolo[3,4-c]pyrazole-5(1H)-carboxamide], in that order: 41 nM and 353 nM.
For `COc1ccc(CC(=O)Nc2n[nH]c3c2CN(C(=O)N[C@H](CN(C)C)c2ccccc2)C3(C)C)cc1` [Example 55, N-[(1S)-2-(dimethylamino)-1-phenylethyl]-3-{[(4-methoxyphenyl)acetyl]amino}-6,6-dimethyl-4,6-dihydropyrrolo[3,4-c]pyrazole-5(1H)-carboxamide], in that order: 13.6 nM and 148 nM.
The compound `CN(C)C[C@@H](NC(=O)N1Cc2c(NC(=O)[C@@H]3C[C@H]3c3ccccc3)n[nH]c2C1(C)C)c1ccccc1` [Example 56, N-[(1S)-2-(dimethylamino)-1-phenylethyl]-6,6-dimethyl-3-({[trans-2-phenylcyclopropyl]carbonyl}amino)-4,6-dihydropyrrolo[3,4-c]pyrazole-5(1H)-carboxamide] gave a Ki in test [1] of 6.9 nM. In test [2], this compound came in with an EC50 of 37.1 nM.
For `CN(C)C[C@@H](NC(=O)N1Cc2c(NC(=O)c3cccs3)n[nH]c2C1(C)C)c1ccccc1` [Example 57, N-[(1S)-2-(dimethylamino)-1-phenylethyl]-6,6-dimethyl-3-[(2-thienylcarbonyl)amino]-4,6-dihydropyrrolo[3,4-c]pyrazole-5(1H)-carboxamide], in that order: 11.3 nM and 16 nM.
In turn, `CN(C)C[C@@H](OC(=O)N1Cc2c(NC(=O)c3cscn3)n[nH]c2C1(C)C)c1ccccc1` [Example 68, (1S)-2-(dimethylamino)-1-phenylethyl 6,6-dimethyl-3-[(1,3-thiazol-4-ylcarbonyl)amino]-4,6-dihydropyrrolo[3,4-c]pyrazole-5(1H)-carboxylate] displayed a Ki in test [1] of 48.2 nM. In addition, in test [2], the midpoint of the response, the EC50, lay at 34.1 nM.
The corresponding values for `CN(C)C[C@@H](OC(=O)N1Cc2c(NC(=O)c3cn(C)cn3)n[nH]c2C1(C)C)c1ccccc1` [Example 69, (1S)-2-(dimethylamino)-1-phenylethyl 6,6-dimethyl-3-{[(1-methyl-1H-imidazol-4-yl)carbonyl]amino}-4,6-dihydropyrrolo[3,4-c]pyrazole-5(1H)-carboxylate] are 149 nM and 226 nM.
For `CN(C)C[C@@H](NC(=O)N1Cc2c(n[nH]c2NC(=O)c2nccs2)C1(C)C)c1ccccc1` [Example 71, N-[(1S)-2-(dimethylamino)-1-phenylethyl]-6,6-dimethyl-3-[(1,3-thiazol-2-ylcarbonyl)amino]-4,6-dihydropyrrolo[3,4-c]pyrazole-5(1H)-carboxamide], in that order: 101 nM and 84.1 nM.
For `CN(C)C[C@@H](NC(=O)N1Cc2c(NC(=O)c3cscn3)n[nH]c2C1(C)C)c1ccccc1` [Example 72, N-[(1S)-2-(dimethylamino)-1-phenylethyl]-6,6-dimethyl-3-[(1,3-thiazol-4-ylcarbonyl)amino]-4,6-dihydropyrrolo[3,4-c]pyrazole-5(1H)-carboxamide], in that order: 93.8 nM and 362 nM.
In test [1], `C[C@@H](CN(C)C)OC(=O)N1Cc2c(NC(=O)c3ccccc3)n[nH]c2C1(C)C` [Example 73, (1S)-2-(dimethylamino)-1-methylethyl 3-(benzoylamino)-6,6-dimethyl-4,6-dihydropyrrolo [3,4-c]pyrazole-5(1H)-carboxylate] displayed a Ki of 354 nM. For the same compound, it took 200 nM to reach a half-maximal effect in test [2] (EC50).
For `CN(C)C[C@@H](OC(=O)N1Cc2c(NC(=O)c3ccc(F)cc3)n[nH]c2C1(C)C)C1CCCCC1` [Example 75, (1S)-1-cyclohexyl-2-(dimethylamino)ethyl 3-[(4-fluorobenzoyl)amino]-6,6-dimethyl-4,6-dihydropyrrolo[3,4-c]pyrazole-5(1H)-carboxylate], in that order: 73.1 nM and 115 nM.
`COC[C@@H](CN(C)C)OC(=O)N1Cc2c(NC(=O)c3ccc(F)cc3)n[nH]c2C1(C)C` [Example 77, (1R)-2-(dimethylamino)-1-(methoxymethyl)ethyl 3-[(4-fluorobenzoyl)amino]-6,6-dimethyl-4,6-dihydropyrrolo[3,4-c]pyrazole-5(1H)-carboxylate]: the affinity in test [1] corresponds to a Ki of 345 nM. The same compound came in with an EC50 in test [2] of 167 nM.
The corresponding values for `CC(C)C[C@@H](CN(C)C)OC(=O)N1Cc2c(NC(=O)c3ccc(C(F)(F)F)cc3)n[nH]c2C1(C)C` [Example 79, (1S)-1-[(dimethylamino)methyl]-3-methylbutyl 6,6-dimethyl-3-{[4-(trifluoromethyl)benzoyl]amino}-4,6-dihydropyrrolo[3,4-c]pyrazole-5(1H)-carboxylate] are 96 nM and 2120 nM.
For `CC(C)C[C@@H](CN(C)C)OC(=O)N1Cc2c(NC(=O)C3CCC3)n[nH]c2C1(C)C` [Example 80, (S)-1-[(dimethylamino)methyl]-3-methylbutyl 3-[(cyclobutylcarbonyl)amino]-6,6-dimethyl-4,6-dihydropyrrolo[3,4-c]pyrazole-5(1H)-carboxylate], in that order: 756 nM and 12 nM.
Compound `CN(C)C[C@@H](OC(=O)N1Cc2c(NC(=O)c3cccc4c3OCC4)n[nH]c2C1(C)C)c1ccccc1` [Example 81, (1S)-2-(dimethylamino)-1-phenylethyl 3-[(2,3-dihydro-1-benzofuran-7-ylcarbonyl)amino]-6,6-dimethyl-4,6-dihydropyrrolo[3,4-c]pyrazole-5(1H)-carboxylate] returned an inhibitory constant (Ki) in test [1] of 240 nM. For the same compound, the EC50 in test [2] stood at 104 nM.
The corresponding values for `CN(Cc1ccccc1)C[C@@H](OC(=O)N1Cc2c(NC(=O)c3ccc(F)cc3)n[nH]c2C1(C)C)c1ccccc1` [Example 82, (1S)-2-[benzyl(methyl)amino]-1-phenylethyl 3-[(4-fluorobenzoyl)amino]-6,6-dimethyl-4,6-dihydropyrrolo[3,4-c]pyrazole-5(1H)-carboxylate] are 434 nM and 301 nM.

One may read the Ki as the equilibrium dissociation constant of an inhibitor or competing ligand from its target. A lower Ki goes with higher affinity. What is called EC50 is the midpoint of the concentration-response curve.
